Literature values as cited in patent US10794912B2 (priority 2017, dated 2020).

Conditions: in vivo

In the case of `C[C@@H]1Cc2c(Cl)cc(C(=O)N[C@@H](Cc3ccccc3)C(=O)O)c(O)c2C(=O)O1` [ochratoxin A], the time to death is given as 5 to 6 days.
